Results from patent US8067424B2, “Selective inhibitors for cyclin-dependent kinases” (Emory University, priority 2007, dated 2011).
Like-named read-outs stand apart in the source and are kept apart here.

Key:
Format in all cases: biochemical
PKD1 = target: T1, PKD1 (Homo sapiens, UniProt Q15139); assay: Kinase screen: PKD1 assay
T1 sequence (Q15139 1-912): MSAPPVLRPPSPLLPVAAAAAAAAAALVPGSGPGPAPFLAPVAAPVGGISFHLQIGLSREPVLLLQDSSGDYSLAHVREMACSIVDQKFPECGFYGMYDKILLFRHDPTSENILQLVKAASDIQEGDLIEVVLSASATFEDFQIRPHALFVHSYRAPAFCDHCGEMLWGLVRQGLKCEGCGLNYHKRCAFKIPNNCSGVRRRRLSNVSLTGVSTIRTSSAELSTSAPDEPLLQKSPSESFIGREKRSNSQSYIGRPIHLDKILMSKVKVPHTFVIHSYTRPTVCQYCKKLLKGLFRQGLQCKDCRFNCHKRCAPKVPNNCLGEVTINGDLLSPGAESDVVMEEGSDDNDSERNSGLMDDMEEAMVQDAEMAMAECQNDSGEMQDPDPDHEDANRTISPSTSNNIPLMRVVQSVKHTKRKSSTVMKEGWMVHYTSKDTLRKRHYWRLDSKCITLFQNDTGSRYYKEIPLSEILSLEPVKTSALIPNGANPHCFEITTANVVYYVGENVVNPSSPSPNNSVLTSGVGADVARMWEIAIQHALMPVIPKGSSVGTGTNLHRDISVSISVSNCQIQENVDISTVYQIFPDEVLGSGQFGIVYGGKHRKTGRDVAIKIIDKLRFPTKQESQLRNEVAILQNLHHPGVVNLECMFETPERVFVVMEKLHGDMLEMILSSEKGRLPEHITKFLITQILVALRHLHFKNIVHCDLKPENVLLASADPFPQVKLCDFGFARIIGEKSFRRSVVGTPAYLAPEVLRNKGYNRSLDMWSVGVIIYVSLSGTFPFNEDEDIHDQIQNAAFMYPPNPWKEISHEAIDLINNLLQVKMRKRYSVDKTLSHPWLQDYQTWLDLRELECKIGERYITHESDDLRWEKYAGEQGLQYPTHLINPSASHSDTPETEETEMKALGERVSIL
Procedure: (§1) Generally, the same procedure was used for all assays. Since the total assay volume was 25.5 microliters, 0.5 microliters of inhibitors at 51× assay concentration were added to the plates before any other addition.
(§2) The basic procedure was to add 0.5 microliters inhibitor/control in DMSO to plate. Fifteen microliters of enzyme/substrate/buffer mix were added and incubated for 5 min. Ten microliters MgATP at the relevant concentration were added and incubated for 30 min. The assay was stopped by adding 5 microliters of 3% orthophosphoric acid. The assay was transferred to a p81 filter plate and read in a scintillation counter of 30 sec/well. Note that this assay procedure was not followed for MKK1, which instead involved a two-step assay, and PKC alpha, which required the addition of lipid vesicles.
(§3) PKD1 assay: PKD1 (5-20 mU diluted in 50 mM Tris pH 7.5, 0.1 mM EGTA, 0.1% b-mercaptoethanol, 1 mg/ml BSA) was assayed substrate peptide ([…]) (SEQ ID NO: 3) in a final volume of 25.5 μl containing 50 mM Tris pH 7.5, 0.05% b-mercaptoethanol, 30 μM substrate peptide, 10 mM magnesium acetate and 0.05 mM [33P-g-ATP] (50-1000 cpm/pmole) and incubated for 30 min at room temperature. Assays were stopped by addition of 5 μl of 0.5 M (3%) orthophosphoric acid and then harvested onto P81 Unifilter plates with a wash buffer of 50 mM orthophosphoric acid.

BRSK2 = target: T2, BRSK2 (Homo sapiens, UniProt Q8IWQ3); assay: Kinase screen: BRSK2 assay
T2 sequence (Q8IWQ3 1-736): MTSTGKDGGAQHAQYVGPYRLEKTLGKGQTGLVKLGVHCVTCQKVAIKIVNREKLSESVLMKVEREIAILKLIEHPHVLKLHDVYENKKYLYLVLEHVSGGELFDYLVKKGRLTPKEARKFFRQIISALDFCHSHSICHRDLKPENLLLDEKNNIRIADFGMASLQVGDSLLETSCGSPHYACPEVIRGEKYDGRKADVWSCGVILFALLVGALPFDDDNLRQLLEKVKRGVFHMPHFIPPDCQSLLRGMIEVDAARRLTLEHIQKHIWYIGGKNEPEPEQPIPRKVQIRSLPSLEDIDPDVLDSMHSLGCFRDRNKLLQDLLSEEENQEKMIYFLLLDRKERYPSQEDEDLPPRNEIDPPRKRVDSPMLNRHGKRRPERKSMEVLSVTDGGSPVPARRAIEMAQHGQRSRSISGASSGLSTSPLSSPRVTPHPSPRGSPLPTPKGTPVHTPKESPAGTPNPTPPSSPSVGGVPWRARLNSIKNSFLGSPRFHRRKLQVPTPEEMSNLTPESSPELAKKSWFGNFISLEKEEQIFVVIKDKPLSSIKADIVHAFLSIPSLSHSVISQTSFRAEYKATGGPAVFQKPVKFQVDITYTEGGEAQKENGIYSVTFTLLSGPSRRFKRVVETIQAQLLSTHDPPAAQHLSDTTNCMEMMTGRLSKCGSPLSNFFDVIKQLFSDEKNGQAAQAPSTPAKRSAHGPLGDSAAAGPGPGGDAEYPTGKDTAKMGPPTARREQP
Procedure: as §1, §2
as §3, with “BRSK2 assay: BRSK2” for “PKD1 assay: PKD1”, “BRSK2 assay: BRSK2 (5-20 mU” for “PKD1 assay: PKD1 (5-20 mU”, “was assayed against a substrate peptide” for “was assayed substrate peptide”, “ID NO: 33) in a” for “ID NO: 3) in a”, “0.05% b-mercaptoethanol, 300 μM substrate” for “0.05% b-mercaptoethanol, 30 μM substrate”

CDK2-Cyclin A = CDK2-Cyclin A (Homo sapiens, UniProt P24941); assay: Kinase screen: CDK2/cyclin A assay
Procedure: Generally, the same procedure was used for all assays.
as §2
CDK2/cyclin A assay: CDK2/cyclin A (5-20 mU diluted in 50 mM Hepes pH 7.5, 1 mM DTT, 0.02% Brij35, 100 mM NaCl) was assayed against Histone H1 in a final volume of 25.5 μl containing 50 mM Hepes pH7.5, 1 mM DTT, 0.02% Brij35, 100 mM NaCl, Histone H1 (1 mg/ml), 10 mM magnesium acetate and 0.02 mM [33P-g-ATP] (500-1000 cpm/pmole) and incubated for 30 min at room temperature. Assays were stopped by addition of 5 μl of 0.5 M (3%) orthophosphoric acid and then harvested onto P81 Unifilter plates with a wash buffer of 50 mM orthophosphoric acid.

[1] = 10 micromolar compound, read-out: mean activity remaining (as a percentage of the original activity), PKD1
[2] = 10 micromolar compound, read-out: mean activity remaining (as a percentage of the original activity), BRSK 2
[3] = 10 micromolar compound, read-out: mean activity remaining (as a percentage of the original activity), CDK 2 - Cyelin A

Structure (SMILES)	remaining activity at 10 µM (PKD1; [1]) [%]	remaining activity at 10 µM (BRSK2; [2]) [%]	remaining activity at 10 µM (CDK2-Cyclin A; [3]) [%]	further results
CC(C)c1cnn2c(NCc3ccccc3F)cc(NCCCCCN)nc12 [ICEC-0232]				mean activity remaining (as a percentage of the original activity), PKD1 (PKD1; 10 micromolar compound): 32%; mean activity remaining (as a percentage of the original activity), BRSK 2 (BRSK2; 10 micromolar compound): 81%; mean activity remaining (as a percentage of the original activity), CDK 2 - Cyelin A (CDK2-Cyclin A; 10 micromolar compound): 9%
CC(C)c1cnn2c(NCc3ccccc3)cc(NCCCCCCCN)nc12 [BS-181]				remaining activity at 10 µM (PKD1; PKD1, 10 μM, read-out: Mean Remaining Enzyme Activity (%)): 53%; remaining activity at 10 µM (BRSK2; BRSK2, 10 μM, read-out: Mean Remaining Enzyme Activity (%)): 98%; remaining activity at 10 µM (CDK2-Cyclin A; CDK2-Cyclin A, 10 μM, read-out: Mean Remaining Enzyme Activity (%)): 9%; IC50 (CDK2-Cyclin A; kinase screen): 750 nM
CC[C@H](CO)Nc1cc(NCc2ccccc2)n2ncc(C(C)C)c2n1 [ICEC0067]	87	76	5	
C=C[C@H](CO)Nc1cc(NCc2ccccc2)n2ncc(C(C)C)c2n1 [ICEC0065]	88	76	3	
CC(C)c1cnn2c(NCc3ccccc3)cc(N[C@@H](CO)[C@H](O)CO)nc12 [ICEC0318, (3S)-3-(7-(Benzylamino)-3-isopropylpyrazolo[1,5-a]pyrimidin-5-ylamino)butane-1,2,4-triol]	97	108		
